Values joined by “and” are separate entries in the source; they are usually repeats but may differ in a detail not shown here. Equal entries are not always repeated. One block for each molecule: values may come before it.
Key:
[1] = Pharmacokinetic testing of representative compounds in CD-1 mice, oral dosing; type: in vivo; conditions: mean ± SD; for AUC0→∞, analyte: prodrug compound / AUCLast, analyte: prodrug compound / half-life / Tmax: dosed orally 10 mg/kg, analyte = dosed prodrug, nd = none detected; for half-life / Tmax: mouse, in vivo, po; for half-life: read-out: Half Life, analyte: prodrug compound (converted); for Tmax: read-out: Tmax, analyte: prodrug compound
Experimental: Representative compounds were tested for pharmacokinetic activity in CD-1 mice. Mice were dosed orally with 10 mg/kg of each representative compound as well as alvocidib.
The results in Table 3 show the tested compounds afforded high exposure of released alvocidib and no apparent exposure of the prodrug compounds. Additional results are shown in Tables 4 and 5, including use of alvocidib.HCl as a control: […]

[2] = Comparison of exposure of released alvocidib to parent prodrug exposure; type: in vivo; conditions: expressed as a percentage of the released alvocidib exposure
Experimental: Representative prodrug compounds (i.e., Compounds 10, 21-28 and 29-31) were tested to determine the resultant exposure of released alvocidib as well exposure of the parent compound. The exposure of the parent prodrug is expressed as a percentage of the released alvocidib exposure (% F). The released alvocidib exposure (% F) for each prodrug was calculated as a percentage of the exposure of alvocidib, dosed orally at an equivalent dose.

[3] = labelled compound dosed orally 10 mg/kg, analyte = alvocidib (released from prodrug, or alvocidib.HCl control), hydrochloride, 10 mg/kg

- AUC0→∞, analyte: prodrug compound [1]: 275.1 ± 24.1 ng · h/mL or ng · h/G
- AUCLast, analyte: prodrug compound [1]: 238.3 ± 43.9 ng · h/mL or ng · h/G
- half-life [1]: 4.2 ± 0.1 h
- Tmax [1]: 0.25 h
SMILES: COC(=O)O[C@@H]1CN(C)CC[C@@H]1c1c(O)cc(O)c2c(=O)cc(-c3ccccc3Cl)oc12 [Compound 11, (3S, 4R)-4-(2-(2-chlorophenyl)-5,7-dihydroxy-4-oxo-4H-chromen-8-yl)-1-methylpiperidin-3-yl methyl carbonate]

- AUC0→∞, analyte: prodrug compound [1]: 620.2 ± 147.7 ng · h/mL or ng · h/G
- AUCLast, analyte: prodrug compound [1]: 594.7 ± 143.7 ng · h/mL or ng · h/G
- half-life [1]: 2 ± 0.8 h
- Tmax [1]: 0.4 ± 0.1 h
SMILES: CNC(=O)O[C@@H]1CN(C)CC[C@@H]1c1c(O)cc(O)c2c(=O)cc(-c3ccccc3Cl)oc12 [Compound 13, (3S, 4R)-4-(2-(2-chlorophenyl)-5,7-dihydroxy-4-oxo-4H-chromen-8-yl)-1-methylpiperidin-3-yl methylcarbamate]

- exposure of the parent prodrug [2]: 3%
SMILES: CC(C)C(=O)O[C@@H]1CN(C)CC[C@@H]1c1c(O)cc(O)c2c(=O)cc(-c3ccccc3Cl)oc12 [Compound 22, (3S, 4R)-4-(2-(2-chlorophenyl)-5,7-dihydroxy-4-oxo-4H-chromen-8-yl)-1-methylpiperidin-3-yl isobutyrate]

- exposure of the parent prodrug [2]: low exposure
SMILES: C[C@H](N)C(=O)O[C@@H]1CN(C)CC[C@@H]1c1c(O)cc(O)c2c(=O)cc(-c3ccccc3Cl)oc12 [Compound 27, (3S, 4R)-4-(2-(2-chlorophenyl)-5,7-dihydroxy-4-oxo-4H-chromen-8-yl)-1-methylpiperidin-3-yl L-alaninate]

- exposure of the parent prodrug [2]: not detected
SMILES: CN1CC[C@H](c2c(O)cc(O)c3c(=O)cc(-c4ccccc4Cl)oc23)[C@H](OC(=O)CN)C1 [Compound 28, (3S, 4R)-4-(2-(2-chlorophenyl)-5,7-dihydroxy-4-oxo-4H-chromen-8-yl)-1-methylpiperidin-3-yl glycinate]

Continued, molecule first:

SMILES: CN1CC[C@H](c2c(O)cc(O)c3c(=O)cc(-c4ccccc4Cl)oc23)[C@H](O)C1.Cl [Alvocidib•HCl, 2-(2-chlorophenyl)-5,7-dihydroxy-8-[(3S,4R)-3-hydroxy-1-methylpiperidin-4-yl]-4H-chromen-4-one hydrochloride, reference compound]
- AUC0→∞, analyte: Alvocidib [1, 3]: 10,933.3 ± 4498.0 ng · h/mL or ng · h/G and 10,603.8 ± 1968.4 ng · h/mL or ng · h/G
- AUCLast, analyte: Alvocidib [1, 3]: 7275.2 ± 2572.2 ng · h/mL or ng · h/G and 9952.7 ± 1769.5 ng · h/mL or ng · h/G

SMILES: CCOC(=O)O[C@@H]1CN(C)CC[C@@H]1c1c(O)cc(O)c2c(=O)cc(-c3ccccc3Cl)oc12 [Compound 10, (3S, 4R)-4-(2-(2-chlorophenyl)-5,7-dihydroxy-4-oxo-4H-chromen-8-yl)-1-methylpiperidin-3-yl ethyl carbonate]
- AUC0→∞, analyte: prodrug compound [1]: 646.8 ± 219.4 ng · h/mL or ng · h/G
- AUCLast, analyte: prodrug compound [1]: 405.4 ± 215.6 ng · h/mL or ng · h/G
- half-life [1]: 3.8 ± 0.6 h
- Tmax [1]: 0.25 h
- exposure of the parent prodrug [2]: 2%

SMILES: CCNC(=O)O[C@@H]1CN(C)CC[C@@H]1c1c(O)cc(O)c2c(=O)cc(-c3ccccc3Cl)oc12 [Compound 12, (3S, 4R)-4-(2-(2-chlorophenyl)-5,7-dihydroxy-4-oxo-4H-chromen-8-yl)-1-methylpiperidin-3-yl ethylcarbamate]
- AUC0→∞, analyte: prodrug compound [1]: 281.4 ± 28.3 ng · h/mL or ng · h/G
- AUCLast, analyte: prodrug compound [1]: 262.2 ± 27.8 ng · h/mL or ng · h/G
- half-life [1]: 2.1 ± 0.1 h
- Tmax [1]: 0.42 ± 0.1 h

SMILES: CCCCCCC(=O)O[C@@H]1CN(C)CC[C@@H]1c1c(O)cc(O)c2c(=O)cc(-c3ccccc3Cl)oc12 [Compound 31, (3S, 4R)-4-(2-(2-chlorophenyl)-5,7-dihydroxy-4-oxo-4H-chromen-8-yl)-1-methylpiperidin-3-yl heptanoate]
- exposure of the parent prodrug [2]: not detected

SMILES: CCCCC(=O)O[C@@H]1CN(C)CC[C@@H]1c1c(O)cc(O)c2c(=O)cc(-c3ccccc3Cl)oc12 [Compound 32, (3S, 4R)-4-(2-(2-chlorophenyl)-5,7-dihydroxy-4-oxo-4H-chromen-8-yl)-1-methylpiperidin-3-yl pentanoate]
- exposure of the parent prodrug [2]: not detected

Reference: US11279694B2, “Alvocidib prodrugs and their use as protein kinase inhibitors” (Sumitomo Dainippon Pharma Oncology, Inc., priority 2016, dated 2022)
